Measurements: ChEMBL document CHEMBL2412995, “Design, synthesis and in vitro evaluation against human cancer cells of 5-methyl-5-styryl-2,5-dihydrofuran-2-ones, a new series of goniothalamin analogues” (2013)

Assays:
Assay type in all cases: functional
HT-29 = test: Antiproliferative activity against human HT-29 cells assessed as concentration required for total cell growth inhibition after 48 hrs by SRB assay; conditions: HT-29, 48 h
PC-3 = test: Antiproliferative activity against human PC3 cells assessed as concentration required for total cell growth inhibition after 48 hrs by SRB assay; conditions: PC-3, 48 h
K562 = test: Antiproliferative activity against human K562 cells assessed as concentration required for total cell growth inhibition after 48 hrs by SRB assay; conditions: K562, 48 h
U-251 = test: Antiproliferative activity against human U251 cells assessed as concentration required for total cell growth inhibition after 48 hrs by SRB assay; conditions: U-251, 48 h
UACC-62 = test: Antiproliferative activity against human UACC62 cells assessed as concentration required for total cell growth inhibition after 48 hrs by SRB assay; conditions: UACC-62, 48 h
[1] = Antiproliferative activity against human NCI-ADR-RES cells assessed as concentration required for total cell growth inhibition after 48 hrs by SRB assay
MCF7 = test: Antiproliferative activity against human MCF7 cells assessed as concentration required for total cell growth inhibition after 48 hrs by SRB assay; conditions: MCF7, 48 h
HaCaT = test: Antiproliferative activity against human HaCaT cells assessed as concentration required for total cell growth inhibition after 48 hrs by SRB assay
786-0 = test: Antiproliferative activity against human 786-0 cells assessed as concentration required for total cell growth inhibition after 48 hrs by SRB assay; conditions: 786-0, 48 h

| Structure (SMILES) | TGI (HT-29) | TGI (PC-3) | TGI (K562) | TGI (U-251) | TGI (UACC-62) | TGI [1] | TGI (MCF7) | TGI (HaCaT) | TGI (786-0) |
| --- | --- | --- | --- | --- | --- | --- | --- | --- | --- |
| COc1cc(/C=C/C2(C)C=CC(=O)O2)cc(OC)c1O (stereo not given) | 19.1 µM | 131 µM | > 1 mM | 40.7 µM | 24.6 µM | 51.6 µM | 45.3 µM | 64.4 µM | 108 µM |
| CC1(/C=C/c2ccccc2)C=CC(=O)O1 (stereo not given) | 123 µM | 86.9 µM | > 1 mM | 89.8 µM | 97.2 µM | 414 µM | 95.3 µM | 119 µM | 170 µM |
| CC1(/C=C/c2ccccc2C(F)(F)F)C=CC(=O)O1 (stereo not given) | 15.8 µM | 17.9 µM | 0.573 mM | 14.1 µM | 17.7 µM | 12.2 µM | 13.5 µM | 12.7 µM | 27.9 µM |
| CC1(/C=C/c2ccc(C(F)(F)F)cc2)C=CC(=O)O1 (stereo not given) | 12.3 µM | 13.1 µM | 0.652 mM | 15.7 µM | 15.5 µM | 9.4 µM | 20.4 µM | 12.1 µM | 34 µM |
| CC1(/C=C/c2ccc(F)cc2)C=CC(=O)O1 (stereo not given) | 34.9 µM | 46.5 µM | > 1 mM | 60.8 µM | 55.3 µM | 25.7 µM | 38.5 µM | 47.5 µM | 101 µM |
| COc1ccc(/C=C/C2(C)C=CC(=O)O2)c(OC)c1 (stereo not given) | 57.5 µM | 63.5 µM | > 1 mM | 62.8 µM | 80.1 µM | 151 µM | 43.5 µM | 53.6 µM | 108 µM |
| COc1ccc(/C=C/C2(C)C=CC(=O)O2)cc1OC (stereo not given) | 927 µM | 176 µM | > 1 mM | 192 µM | 84.1 µM | 111 µM | 78.9 µM | 838 µM | 22.9 µM |
| COc1ccc(/C=C/C2(C)C=CC(=O)O2)c(OC)c1OC (stereo not given) | 133 µM | 90 µM | > 1 mM | 87.2 µM | 71.5 µM | 349 µM | 110 µM | 217 µM | 132 µM |
| COc1cc(OC)c(OC)cc1/C=C/C1(C)C=CC(=O)O1 (stereo not given) | 127 µM | 184 µM | > 1 mM | 160 µM | 127 µM | 158 µM | 144 µM | 180 µM | 205 µM |
| COc1cc(/C=C/C2(C)C=CC(=O)O2)cc(OC)c1OC (stereo not given) | 390 µM | 131 µM | > 1 mM | 125 µM | 178 µM | 123 µM | 56.6 µM | 175 µM | 116 µM |
| COc1cc(OC)c(/C=C/C2(C)C=CC(=O)O2)c(OC)c1 (stereo not given) | 127 µM | 239 µM | > 1 mM | 193 µM | 208 µM | 229 µM | 102 µM | 458 µM | 459 µM |
| CC1(/C=C/c2ccccc2O)C=CC(=O)O1 (stereo not given) | 31.3 µM | 112 µM | > 1 mM | 70.9 µM | 92.5 µM | 78 µM | 46.2 µM | 57.3 µM | 136 µM |
| CC1(/C=C/c2cccc(O)c2)C=CC(=O)O1 (stereo not given) | 97.4 µM | 98.8 µM | > 1 mM | 118 µM | 108 µM | 647 µM | 124 µM | 88.1 µM | 196 µM |
| CC1(/C=C/c2ccc(O)cc2)C=CC(=O)O1 (stereo not given) | 122 µM | 138 µM | > 1 mM | 107 µM | 55.3 µM | 111 µM | 69.1 µM | 81.2 µM | 143 µM |
| COc1ccccc1/C=C/C1(C)C=CC(=O)O1 (stereo not given) | 30.8 µM | 34.2 µM | 0.86 mM | 41.1 µM | 31 µM | 64.5 µM | 27 µM | 30.8 µM | 35.4 µM |
| COc1cccc(/C=C/C2(C)C=CC(=O)O2)c1 (stereo not given) | 17 µM | 31.6 µM | > 1 mM | 37.6 µM | 55.8 µM | 48.6 µM | 25.3 µM | 5.7 µM | 70 µM |
| COc1ccc(/C=C/C2(C)C=CC(=O)O2)cc1 (stereo not given) | 92.9 µM | 145 µM | > 1 mM | 127 µM | 147 µM | > 1000 µM | 183 µM | 316 µM | > 1000 µM |
| C[C@]1(/C=C/c2ccccc2)CC=CC(=O)O1 | 41.1 µM | 31.7 µM | > 1 mM | 27.5 µM | 37.2 µM | 107 µM | 48 µM | 50.7 µM | 68.7 µM |
| COc1cccc2c1C(=O)c1c(O)c3c(c(O)c1C2=O)C[C@@](O)(C(=O)CO)C[C@@H]3O[C@H]1C[C@H](N)[C@H](O)[C@H](C)O1 [DOXORUBICIN] | 3.6 µM | 2.5 µM | 0.0455 mM | 2.1 µM | 0.2 µM | 10.3 µM | 4.9 µM | 0.4 µM | 1 µM |
| O=C1C=CC[C@H](/C=C/c2ccccc2)O1 [GONIOTHALAMIN] | 10 µM | 9.6 µM | 0.927 mM | 9.8 µM | 17.4 µM | 14.5 µM | 11.2 µM | 13.4 µM | 13.9 µM |
